Experimental findings from patent publication US11226332B2, “Method for the detection, preparation and depletion of CD4+ t lymphocytes” (IMCYSE SA, priority 2013, dated 2022) are described below.

In test [1] the test system is human peripheral blood CD4+ T cells. Description: DQ8 tetramers loaded with insulin B9-23 peptide, facs sorting of CD4+ T cells for TCR alpha chain sequencing. Type of test: cell-based. Conditions: control SEQ ID 10 without thioreductase motif. The text has this:
Expression of human DQ8 MHC class II molecule is associated with reactivity to a major epitope of insulin, located in the beta chain of insulin within the amino acid sequence 9-23. Human peripheral blood naïve T cell repertoire frequently contains cells expressing germline encoded alpha chain sequences, called Trav13-1, associated with various beta chain sequences, but which are sufficient as to confer a low affinity reaction with the B9-23 insulin epitope when presented by DQ8.
Peptides encompassing the sequences of the B9-23 epitope with a thioreductase motif and a one amino acid glycine linker are produced, namely […] INS9-23 (SEQ ID 9) and control peptides without thioreductase motif and linker […] INS9-23 (SEQ ID 10)
Tetramers of DQ8 are produced and loaded with each one of peptides of SEQ ID 9 or SEQ ID 10. Loaded tetramers are incubated with human peripheral blood CD4+ T cells. Cells are washed, analysed by facs and sorted out. Cells are then washed from tetramers and used for TCR alpha chain sequencing using corresponding primers.

The test system of test [2] is CD4+ T cells from peripheral blood. Description: MHC class II tetramers loaded with influenza hemagglutinin peptide, counting of CD4+ T cells by facs before and after vaccination. Type of test: cell-based. The settings on record: fluorescence-labeled MHC class II tetramers loaded with peptide; compared with peptide of SEQ ID 4 without thioreductase motif.
The subject of test [3] is MOG-specific naïve CD4+ T cells. In words: DRB1*1501 MHC class II tetramers loaded with MOG peptide, detection of naïve CD4+ T cells by facs. Type of test: cell-based, human. The settings on record: DRB1*1501 tetramers loaded with peptide, 2 h at 37° C, control: same peptide without thioreductase motif (SEQ ID NO:2). On the procedure: Naïve CD4+ T cells are prepared from the peripheral repertoire of DRB1*1501+ subjects susceptible to suffer from multiple sclerosis, using magnetic beads to remove CD4(−) cells and memory cells, as described in the art. Tetramers of DRB1*1501 are made as known in the art (Kasprowicz V et al. (2006) J. Virol. 80, 11209-112017), including a fluorescent label such as Ficoerythrin. A synthetic peptide is produced, which encompasses the corresponding class II-restricted MOG
T cell epitope and a thioreductase motif CGPCSRVVHLYRNGK D [SEQ ID NO: 1], which corresponds to amino acid residues 47-58 of the MOG protein.
Tetramers are loaded with peptide of SEQ ID 1 overnight at room temperature in the appropriate buffer conditions as known in the art. Loaded tetramers are then washed and incubated with naïve CD4+ T cells for 2 h at 37° C. The suspension is then read with a fluorescence-activated cell sorting (facs) system and the proportion of naïve cells specific to the MOG peptide evaluated Control experiments are performed with MHC complex with the same peptide without thioreductase motif. SRVVHLYRNGKD [SEQ ID NO:2].

Test [4] has as its system GAD65-specific CD4+ T cells. In words: Sorting of GAD65-specific CD4+ T cells from NOD mouse spleen with peptide-loaded class II tetramers and expansion to cytolytic CD4+ T cells. Type of test: cell-based, NOD mice. On the procedure: NOD (non-obese diabetic) mice spontaneously develop diabetes by progressive destruction of insulin-producing Langerhans islet cells. NOD mice are considered as a representative pre-clinical model of human IDDM. Effector CD4+ T cells against GAD65 are prepared from the spleen of diseased animals by first depleting non-CD4+ cells. CD4+ cells are then incubated with class II tetramers loaded with a GAD65 class II restricted epitope encompassing a thioreductase motif in flanking residues.
The sequence of the peptide is therefore CRLCKVAPVIKARMM (GAD65 524-543) (SEQ ID NO: 7) A peptide of GAD65 without thioreductase motif is prepared for control experiments KVAPVIKARMM (SEQ ID NO: 8).
Cells are then sorted by facs according to their binding of peptide-loaded tetramers. Positive cells are then maintained in culture and stimulated with APC loaded with peptide of SEQ ID 7 to generate cytolytic CD4+ T cells, as described in the WO2008017517 patent application.

Test [5] has as its system Dby-specific CD4+ T cells. In words: Depletion of Dby-specific CD4+ T cells with peptide-loaded H-2b class II beads, then male bone marrow grafting in reconstituted RAG2 KO mice. Conditions: RAG2 KO mice reconstituted with female H-2b lymphocytes depleted on beads coated with class II H-2b molecules loaded with peptide. Type of test: in vivo, mouse. The text has this: In the mouse model, male bone marrow is rejected by syngeneic females due to recognition of H-Y encoded antigens among which the Dby protein plays a major role. A majority of CD4+ T cells recognize an epitope made of residues FNSNRANSS of the murine Dby antigen which is encoded by the […]
A synthetic peptide made of this class II restricted T cell epitope with a thioreductase motif is produced, corresponding to CHGCFNSNRANSS [SEQ ID NO:5] and the corresponding Dby peptide in natural configuration is produced as a control, namely […].
Lymphocytes from the spleen of female H-2b mice are prepared by magnetic bead sorting. The cells are then incubated with a suspension of beads coated with class II H-2b molecules and loaded with peptide of SEQ ID 5 or of SEQ ID 6. Lymphocytes T cells, containing all CD4+ T cells not retained on beads and CD8+ T cells, are used to reconstitute RAG2 KO mice, which are then engrafted by the bone marrow of a male syngeneic donor. RAG2 KO mice have no functional adaptive immune system and are therefore unable to reject the graft. Rejection is thereby depending only of cells present in the passively transferred population.

In the case of “CGHCGSHLVEALYLVCGERG (redox motif + glycine linker+ insulin epitope) [SEQ ID 9]”, the “number of cells obtained by tetramer sorting for TCR sequencing” value in test [1] is listed as “obtained in sufficient number as to allow TCR sequencing”.

For the sequence “CGHCKYVKQNTLKHEMAGG (redox motif + influenza hemaglutinin epitope) [SEQ ID 3]”, the “number of CD4+ T cells detected in peripheral blood” value in test [2] is recorded as “higher number of CD4+ T cells are detected”.

With CGPCSRVVHLYRNGKD [SEQ ID 1], in test [3], the “detection of naïve CD4+ T cells specific to the MOG sequence” value is listed as “able to detect naïve CD4+ T cells”.

As for “CRLCKVAPVIKARMM (redox motif + GAD65 epitope) [SEQ ID 7]”, the “yield of GAD65-specific cytolytic CD4+ T cells” value in test [4] (tetramer sorting compared with the method of WO2008017517 (peptide added to T cells from spleen of NOD mice)) is reported as “higher”; in test [4] (tetramers loaded with peptide of SEQ ID 7 instead of peptide of SEQ ID 8), “significantly increased”.

Consider FNSNRANSS (Dby epitope) [SEQ ID 6], for which the “graft acceptance (male bone marrow)” value in test [5] is recorded as “no improvement of graft acceptance”.
